≈ marks a conversion by molar mass, not a printed value.
Key:
Klebsiella pneumoniae [1] = assay: Bactericidal activity against Klebsiella pneumoniae MTCC 432 after 3 days; assay type: functional; conditions: MTCC 432, 72 h
Escherichia coli [2] = assay: Antibacterial activity against Escherichia coli MTCC 443 after 16 to 18 hr by serial dilution method; assay type: functional
[3] = tested on: Staphylococcus epidermidis; assay: Antibacterial activity against Staphylococcus epidermidis MTCC 435 after 16 to 18 hr by serial dilution method; assay type: functional
Bacillus subtilis [4] = assay: Antibacterial activity against Bacillus subtilis MTCC 441 after 16 to 18 hr by serial dilution method; assay type: functional
Escherichia coli [5] = assay: Bactericidal against Escherichia coli MTCC 443 after 3 days; assay type: functional; conditions: MTCC 443, 72 h
Aspergillus fumigatus [6] = assay: Antifungal activity against Aspergillus fumigatus MTCC 343 after 28 to 30 hr by serial dilution method; assay type: functional
Staphylococcus aureus [7] = assay: Bactericidal activity against Staphylococcus aureus MTCC 096 after 3 days; assay type: functional; conditions: MTCC 096, 72 h
Escherichia coli [8] = assay type: functional, MTCC 443
Klebsiella pneumoniae [9] = assay type: functional, MTCC 432
Pseudomonas aeruginosa [10] = assay type: functional, MTCC 424
Candida albicans [11] = assay: Fungicidal activity against Candida albicans MTCC 227 after 3 days; assay type: functional; conditions: MTCC 227, 72 h
Aspergillus niger [12] = assay: Fungicidal activity against Aspergillus niger MTCC 282 after 3 days; assay type: functional; conditions: MTCC 282, 72 h
Aspergillus flavus [13] = assay: Antifungal activity against Aspergillus flavus MTCC 277 at […] to […] ug/ml after 28 to 30 hr by cup-plate method; assay type: functional
Aspergillus flavus [14] = assay: Antifungal activity against Aspergillus flavus MTCC 277 after 28 to 30 hr by serial dilution method; assay type: functional
Aspergillus niger [15] = assay: Antifungal activity against Aspergillus niger MTCC 282 after 28 to 30 hr by serial dilution method; assay type: functional
[16] = tested on: Staphylococcus epidermidis; assay type: functional, MTCC 435
Aspergillus niger [17] = assay: Antifungal activity against Aspergillus niger MTCC 282 at […] to […] ug/ml after 28 to 30 hr by cup-plate method; assay type: functional
Staphylococcus aureus [18] = assay type: functional, MTCC 096
Klebsiella pneumoniae [19] = assay: Antibacterial activity against Klebsiella pneumoniae MTCC 432 after 16 to 18 hr by serial dilution method; assay type: functional
Staphylococcus aureus [20] = assay: Antibacterial activity against Staphylococcus aureus MTCC 096 after 16 to 18 hr by serial dilution method; assay type: functional
Candida albicans [21] = assay type: functional, MTCC 227
Candida albicans [22] = assay: Antifungal activity against Candida albicans MTCC 227 after 28 to 30 hr by serial dilution method; assay type: functional
Pseudomonas aeruginosa [23] = assay: Antibacterial activity against Pseudomonas aeruginosa MTCC 424 after 16 to 18 hr by serial dilution method; assay type: functional
Salmonella typhi [24] = assay: Antibacterial activity against Salmonella enterica subsp. enterica serovar Typhi MTCC 733 at […] to […] ug/ml after 16 to 18 hr by cup-plate method; assay type: functional
Bacillus subtilis [25] = assay type: functional, MTCC 441
Aspergillus fumigatus [26] = assay: Antifungal activity against Aspergillus fumigatus MTCC 343 at […] to […] ug/ml after 28 to 30 hr by cup-plate method; assay type: functional
Salmonella typhi [27] = assay: Antibacterial activity against Salmonella enterica subsp. enterica serovar Typhi MTCC 733 after 16 to 18 hr by serial dilution method; assay type: functional

| SMILES | MIC (Escherichia coli [2]) | MIC [3] | MIC (Bacillus subtilis [4]) | MIC (Aspergillus fumigatus [6]) | inhibition zone (IZ) (Escherichia coli [8]) | inhibition zone (IZ) (Klebsiella pneumoniae [9]) | inhibition zone (IZ) (Pseudomonas aeruginosa [10]) | inhibition zone (IZ) (Aspergillus flavus [13]) | MIC (Aspergillus flavus [14]) | MIC (Aspergillus niger [15]) | inhibition zone (IZ) [16] | inhibition zone (IZ) (Aspergillus niger [17]) | inhibition zone (IZ) (Staphylococcus aureus [18]) | MIC (Klebsiella pneumoniae [19]) | MIC (Staphylococcus aureus [20]) | inhibition zone (IZ) (Candida albicans [21]) | MIC (Candida albicans [22]) | MIC (Pseudomonas aeruginosa [23]) | inhibition zone (IZ) (Salmonella typhi [24]) | inhibition zone (IZ) (Bacillus subtilis [25]) | further results |
| --- | --- | --- | --- | --- | --- | --- | --- | --- | --- | --- | --- | --- | --- | --- | --- | --- | --- | --- | --- | --- | --- |
| COc1cc(-c2nnc(COc3cc(=O)oc4ccccc34)[nH]2)ccc1O | 6.25 mg/L (≈ 17.1 µM) | 50 mg/L (≈ 137 µM) | 12.5 mg/L (≈ 34.2 µM) | 12.5 mg/L (≈ 34.2 µM) | 13 mm | 15 mm | <10 mm | <10 mm | 25 mg/L (≈ 68.4 µM) | 12.5 mg/L (≈ 34.2 µM) | <10 mm | 12 mm | 15 mm | 6.25 mg/L (≈ 17.1 µM) | 6.25 mg/L (≈ 17.1 µM) | 14 mm | 6.25 mg/L (≈ 17.1 µM) | 25 mg/L (≈ 68.4 µM) | 14 mm | 11 mm | MBC (Klebsiella pneumoniae [1]): 12.5 mg/L (≈ 34.2 µM); MBC (Escherichia coli [5]): 12.5 mg/L (≈ 34.2 µM); MBC (Staphylococcus aureus [7]): 12.5 mg/L (≈ 34.2 µM); MFC (Candida albicans [11]): 12.5 mg/L (≈ 34.2 µM); MFC (Aspergillus niger [12]): 12.5 mg/L (≈ 34.2 µM); inhibition zone (IZ) (Aspergillus fumigatus [26]): 13 mm; MIC (Salmonella typhi [27]): 6.25 mg/L (≈ 17.1 µM) |
| O=c1cc(OCc2nnc(-c3ccc(O)cc3)[nH]2)c2ccccc2o1 | 6.25 mg/L (≈ 18.6 µM) | 12.5 mg/L (≈ 37.3 µM) | 50 mg/L (≈ 149 µM) | 12.5 mg/L (≈ 37.3 µM) | 14 mm | 14 mm | <10 mm | <10 mm | 25 mg/L (≈ 74.6 µM) | 12.5 mg/L (≈ 37.3 µM) | 11 mm | 12 mm | 11 mm | 6.25 mg/L (≈ 18.6 µM) | 12.5 mg/L (≈ 37.3 µM) | 15 mm | 6.25 mg/L (≈ 18.6 µM) | 50 mg/L (≈ 149 µM) | 10 mm | <10 mm | inhibition zone (IZ) (Aspergillus fumigatus [26]): 12 mm; MIC (Salmonella typhi [27]): 25 mg/L (≈ 74.6 µM) |
| COc1ccc(-c2nnc(COc3cc(=O)oc4ccccc34)[nH]2)cc1 | 12.5 mg/L (≈ 35.8 µM) | 25 mg/L (≈ 71.6 µM) | 12.5 mg/L (≈ 35.8 µM) | 25 mg/L (≈ 71.6 µM) | 11 mm | 14 mm | <10 mm | <10 mm | 25 mg/L (≈ 71.6 µM) | 6.25 mg/L (≈ 17.9 µM) | <10 mm | 12 mm | 13 mm | 6.25 mg/L (≈ 17.9 µM) | 6.25 mg/L (≈ 17.9 µM) | 14 mm | 6.25 mg/L (≈ 17.9 µM) | 50 mg/L (≈ 143 µM) | <10 mm | 11 mm | inhibition zone (IZ) (Aspergillus fumigatus [26]): <10 mm; MIC (Salmonella typhi [27]): 25 mg/L (≈ 71.6 µM) |
| COc1cc(-c2nnc(COc3cc(=O)oc4ccccc34)[nH]2)cc(OC)c1OC | 12.5 mg/L (≈ 30.5 µM) | 12.5 mg/L (≈ 30.5 µM) | 6.25 mg/L (≈ 15.3 µM) | 25 mg/L (≈ 61.1 µM) | 12 mm | 11 mm | <10 mm | <10 mm | 25 mg/L (≈ 61.1 µM) | 6.25 mg/L (≈ 15.3 µM) | 12 mm | 14 mm | 14 mm | 12.5 mg/L (≈ 30.5 µM) | 6.25 mg/L (≈ 15.3 µM) | 12 mm | 12.5 mg/L (≈ 30.5 µM) | 25 mg/L (≈ 61.1 µM) | 14 mm | 14 mm | MBC (Klebsiella pneumoniae [1]): 25 mg/L (≈ 61.1 µM); MBC (Escherichia coli [5]): 25 mg/L (≈ 61.1 µM); MBC (Staphylococcus aureus [7]): 25 mg/L (≈ 61.1 µM); MFC (Candida albicans [11]): 25 mg/L (≈ 61.1 µM); MFC (Aspergillus niger [12]): 25 mg/L (≈ 61.1 µM); inhibition zone (IZ) (Aspergillus fumigatus [26]): 11 mm; MIC (Salmonella typhi [27]): 6.25 mg/L (≈ 15.3 µM) |
| O=c1cc(OCc2nnc(-c3ccc(F)cc3)[nH]2)c2ccccc2o1 | 12.5 mg/L (≈ 37.1 µM) | 50 mg/L (≈ 148 µM) | 50 mg/L (≈ 148 µM) | 12.5 mg/L (≈ 37.1 µM) | 11 mm | 13 mm | <10 mm | 11 mm | 12.5 mg/L (≈ 37.1 µM) | 12.5 mg/L (≈ 37.1 µM) | <10 mm | 13 mm | 13 mm | 6.25 mg/L (≈ 18.5 µM) | 6.25 mg/L (≈ 18.5 µM) | 14 mm | 6.25 mg/L (≈ 18.5 µM) | 25 mg/L (≈ 74.1 µM) | 11 mm | <10 mm | MBC (Klebsiella pneumoniae [1]): 25 mg/L (≈ 74.1 µM); MBC (Escherichia coli [5]): 25 mg/L (≈ 74.1 µM); MBC (Staphylococcus aureus [7]): 12.5 mg/L (≈ 37.1 µM); MFC (Candida albicans [11]): 12.5 mg/L (≈ 37.1 µM); MFC (Aspergillus niger [12]): 25 mg/L (≈ 74.1 µM); inhibition zone (IZ) (Aspergillus fumigatus [26]): 12 mm; MIC (Salmonella typhi [27]): 12.5 mg/L (≈ 37.1 µM) |
| COc1ccc(-c2nnc(COc3cc(=O)oc4ccccc34)[nH]2)cc1OC | 25 mg/L (≈ 65.9 µM) | 25 mg/L (≈ 65.9 µM) | 25 mg/L (≈ 65.9 µM) | 25 mg/L (≈ 65.9 µM) | <10 mm | 11 mm | <10 mm | <10 mm | 25 mg/L (≈ 65.9 µM) | 6.25 mg/L (≈ 16.5 µM) | <10 mm | 13 mm | 14 mm | 12.5 mg/L (≈ 32.9 µM) | 6.25 mg/L (≈ 16.5 µM) | 15 mm | 6.25 mg/L (≈ 16.5 µM) | 25 mg/L (≈ 65.9 µM) | 13 mm | <10 mm | MBC (Klebsiella pneumoniae [1]): 25 mg/L (≈ 65.9 µM); MBC (Escherichia coli [5]): 25 mg/L (≈ 65.9 µM); MBC (Staphylococcus aureus [7]): 12.5 mg/L (≈ 32.9 µM); MFC (Candida albicans [11]): 25 mg/L (≈ 65.9 µM); MFC (Aspergillus niger [12]): 25 mg/L (≈ 65.9 µM); inhibition zone (IZ) (Aspergillus fumigatus [26]): <10 mm; MIC (Salmonella typhi [27]): 6.25 mg/L (≈ 16.5 µM) |
| O=c1cc(OCc2nnc(-c3ccco3)[nH]2)c2ccccc2o1 | 6.25 mg/L (≈ 20.2 µM) | 25 mg/L (≈ 80.8 µM) | 50 mg/L (≈ 162 µM) | 25 mg/L (≈ 80.8 µM) | 15 mm | 14 mm | 11 mm | 12 mm | 12.5 mg/L (≈ 40.4 µM) | 6.25 mg/L (≈ 20.2 µM) | <10 mm | 14 mm | 15 mm | 6.25 mg/L (≈ 20.2 µM) | 6.25 mg/L (≈ 20.2 µM) | 13 mm | 6.25 mg/L (≈ 20.2 µM) | 12.5 mg/L (≈ 40.4 µM) | <10 mm | <10 mm | MBC (Klebsiella pneumoniae [1]): 25 mg/L (≈ 80.8 µM); MBC (Escherichia coli [5]): 12.5 mg/L (≈ 40.4 µM); MBC (Staphylococcus aureus [7]): 12.5 mg/L (≈ 40.4 µM); MFC (Candida albicans [11]): 25 mg/L (≈ 80.8 µM); MFC (Aspergillus niger [12]): 12.5 mg/L (≈ 40.4 µM); inhibition zone (IZ) (Aspergillus fumigatus [26]): <10 mm; MIC (Salmonella typhi [27]): 25 mg/L (≈ 80.8 µM) |
| O=c1cc(OCc2nnc(-c3cccs3)[nH]2)c2ccccc2o1 | 6.25 mg/L (≈ 19.2 µM) | 12.5 mg/L (≈ 38.4 µM) | 12.5 mg/L (≈ 38.4 µM) | 12.5 mg/L (≈ 38.4 µM) | 14 mm | 15 mm | 12 mm | 13 mm | 12.5 mg/L (≈ 38.4 µM) | 6.25 mg/L (≈ 19.2 µM) | 11 mm | 15 mm | 14 mm | 6.25 mg/L (≈ 19.2 µM) | 6.25 mg/L (≈ 19.2 µM) | 15 mm | 6.25 mg/L (≈ 19.2 µM) | 12.5 mg/L (≈ 38.4 µM) | <10 mm | 11 mm | MBC (Klebsiella pneumoniae [1]): 25 mg/L (≈ 76.8 µM); MBC (Escherichia coli [5]): 12.5 mg/L (≈ 38.4 µM); MBC (Staphylococcus aureus [7]): 6.25 mg/L (≈ 19.2 µM); MFC (Candida albicans [11]): 12.5 mg/L (≈ 38.4 µM); MFC (Aspergillus niger [12]): 12.5 mg/L (≈ 38.4 µM); inhibition zone (IZ) (Aspergillus fumigatus [26]): 12 mm; MIC (Salmonella typhi [27]): 25 mg/L (≈ 76.8 µM) |

— ChEMBL document CHEMBL3045586, “Synthesis and antimicrobial activity of some new 4-triazolylmethoxy-2H-chromen-2-one derivatives” (2012)
